Where two headings read alike, the source gives them in different places.
How the values were obtained:
[1] = tested on: ICAM-1/LFA-1 interaction; conditions: cited from earlier work
Description: Human and mouse LFA-1-derived peptides (human: CD11a237–261; mouse: CD11a235–259) were purchased from GenScript (Piscataway, USA) without any modification. […] Besides, incubation cells with a mouse antiCD1 ...

[2] = tested on: VLA-4; conditions: ref [42], [43]; cited from earlier work
Source text: (§1) In contrast, cell aggregates were clearly visible in cultures after stimulation (Figure 3A, b). […] Macrophage phenotype was confirmed by testing surface antigens by flow cytometry. Monocyte-derived macrophages expressed higher levels of HLA-DR and CD14 than undifferentiated monocytes ([51]). In addition, expression of CD54 (ICAM-1) was diminished in comparison with freshly isolated monocytes (Figure 6B). […] As shown ...

[3] = tested on: Mac-1; conditions: ref [42], [43]; cited from earlier work
Source text: as §1

[4] = tested on: mouse B cells (ICAM-1/LFA-1 interaction); experiment: Homotypic B cell aggregation assay; format: cell-based; conditions: overnight 37°C, clumping index 1-10
Description: To obtain these cells, mice were sacrificed by cervical dislocation, the spleens were removed, and splenocytes were isolated and resuspended in RPMI 10% FBS at a final concentration of 10^6 cells/ml. Cells were treated with 10 µg/ml PHA and 1 µg/ml ionomycin to activate LFA-1 and incubated at 37°C 5% CO2 overnight in flat bottom 96-well plates (10^5 cells) in the presence of peptides from LFA-1 and c-Myc (control) 250 µM, D1D2, D1D2Fc, and human IgG1 10 µg, EGTA 1 mM and lovastatin 100 µM. A qualitative aggregation assay was carried out as described ([36], [41]) with a slight modification. Briefly, positive control stimulated cell samples were arbitrarily assigned a clumping index of 10 and lovastatin samples an index of 1. Test samples were ranked from 1 to 10 based upon degree of clumping relative to stimulated and lovastatin-treated samples. Results were verified by a blind independent rating performed by a second observer.
Fresh mouse B cells were obtained from splenocytes and stimulated with PHA and ionomycin to induce homotypic adhesion. The results were quantified by establishing a clumping index that represents the degree of cell aggregation, which reflects the inhibition efficiency (Figure 3B). Cell aggregation was ranked by a clumping index from 1 to 10 based on the degree of aggregation in comparison with the stimulated cells (positive control, clumping index = 10).
Figure 3 Effect of human (ICAM-1) on the aggregation of mouse spleen cells. (A) Splenocytes isolated from mice were non treated (a) or activated with PHA (b–i) as described in Section “Experimental Procedures” and further incubated overnight with (b) medium; (c) IgG1; (d) c-Myc peptide; (e) EGTA; (f) lovastatin; (g) D1D2; (h) D1D2Fc; (i) mouse LFA-1 peptide CD11a235–259. Images were taken with an optical microscope (original magnification, 10×). Representative images from two independent experiments with similar results are shown. (B) The graph represents the rate of agglutination depending on the inhibitory effect on ICAM-1/LFA-1 interaction. Cells stimulated with PHA and ionomycin, which served as a positive control, were arbitrarily assigned agglutination index 10, which represents a percentage of aggregation between 90 and 100%. Homotypic aggregation was classified from 1 to 10 depending on the degree of aggregation relative to cells stimulated. The result was verified by a second independent observer. Values are presented as mean ± SEM of two separate experiments performed by duplicate. Statistical analysis was performed using two-way analysis of variance with Bonferroni’s posttest comparing with c-Myc peptide control. *p < 0.05; ***p < 0.001.

[5] = target: T1, D1D2Fc (Homo sapiens, UniProt P05362); conditions: peptide derived from human LFA-1, observed previously, ref [34], cited from earlier work
T1 construct: The synthetic first two domains of ICAM-1 alone (D1D2) or linked with human IgG1 Fc region (D1D2Fc) were expressed in Escherichia coli; made in house; host or cells: Escherichia coli
Source text: In a previous work, we have shown that purified human recombinant ICAM-1 was able to interact with peptides derived from human LFA-1 ([34]). […] The complex formation was net exothermic as would be expected for a reaction in which specific intermolecular interactions are established. Besides, if there were no interaction, there would not be any signal. This value was obtained by fitting to the binding isotherm a 1:n interaction model, which assumes a single type of binding sites.

[6] = tested on: K562 cells killed by human NK cells (ICAM-1/LFA-1); experiment: NK cell-mediated cytotoxicity on K562; format: cell-based; conditions: peptide 250 µM, preincubation 45 min 37°C; effector:target 3:1, 4 h; annexin-V/7-AAD by FACS; vs c-Myc control; two experiments by duplicate
Description: The effect of human and mouse peptides derived from LFA-1 on ICAM-1/LFA-1 dependent cell–cell contact was analyzed by performing a cell cytotoxicity assay using human primary NK cells and the NK cell sensitive human leukemia K562. Primary activated human NK cells were generated by culturing PBMCs with mitomycin C inactivated R69 cells for 5 days and enriched by MACS using anti-CD56 antibodies as previously described ([39]). Cell cytotoxicity induced by NK cells on K562 was analyzed by flow cytometry as previously described ([39]). Briefly, K562 cells were preincubated with medium alone, in the presence of 250 µM of human and mouse peptides from LFA-1 or D1D2 (15 µg) for 45 min at 37°C. Then, NK cells were added at 3:1 effector:target cell ratio and incubated for 4 h at 37°C, 5% CO2. Subsequently, phosphatidylserine exposure and 7-AAD uptake were analyzed by FACS using the annexin-V/7-AAD kit from Immunostep. As a control, the cells were incubated alone with the inhibitors to evaluate their possible toxicity, which was not significant in any case.
Figure 4 Inhibition of natural killer (NK) cell-mediated cytotoxicity by human intercellular adhesion molecule-1. […] Cell death was analyzed by measuring translocation of PS by flow cytometry in the negative population for CFSE as described in experimental procedures. […]

[7] = target: human ICAM-1 first two domains linked with human IgG1 Fc region (D1D2Fc) (human); experiment: ITC; 150 µM peptide injected (28 injections of 10 µl) into 12 µM D1D2Fc in the cell, PBS, 25°C, VP-ITC; fitted with a 1:n interaction model with a single type of binding sites
[8] = tested on: human monocytes; experiment: Human monocyte adhesion to plastic (MTT); format: cell-based; conditions: human D1D2 and D1D2Fc, different concentrations, 37°C overnight, three experiments by duplicate
Description: (§2) Monocytes were isolated from human peripheral blood mononuclear cells (PBMCs), obtained from healthy donors (Blood and Tissue Bank of Aragon; approved by the CEICA, number: C.I.PI11/006) by density gradient centrifugation using Ficoll-Paque (GE healthcare). PBMCs were resuspended at a concentration of 2.5 × 10^6 cells/ml in RPMI medium supplemented with 1% heat-inactivated human AB serum (Sigma). Cells were cultured in a Petri dish for 2 h at 37°C 5% CO2. […]
(§3) Freshly isolated monocytes or differentiated macrophages were washed twice with PBS and incubated with trypsin (PAN Biotech) for 30 min at 37°C 5% CO2. […] Next day, every well was washed twice with PBS, complete RPMI medium was added and the number or adherent remaining cells was quantified by a MTT colorimetric test ([38]). […]
(§4) Figure 6 LFA-1 is involved in human macrophage adhesion. […] (B) Macrophage phenotype was analyzed by flow cytometry testing the expression of HL-DR, CD14, CD54, and CD11a. […] Subsequently, every well was washed twice with PBS to remove non-adherent cells and quantification of cell adhesion was carried out by MTT as described in Section “Experimental Procedures.” Values are presented as mean ± SEM of three independent experiments performed by duplicate. […]

[9] = tested on: gp33-pulsed EL4 cells killed by mouse Tc cells (ICAM-1/LFA-1); experiment: CD8+ T cell-mediated cytotoxicity on EL4; format: cell-based; conditions: ICAM-1 proteins, several (increasing) amounts, preincubation 45 min 37°C; effector:target 10:1, 4 h; annexin-V/7-AAD by FACS; three experiments by duplicate
[10] = tested on: human macrophages; experiment: Human macrophage adhesion to plastic (MTT); format: cell-based; conditions: human D1D2 and D1D2Fc, different concentrations, 37°C overnight, three experiments by duplicate
Description: as §2, §3, §4

T1 sequence (P05362 with tags, fused parts or gaps limits assumed): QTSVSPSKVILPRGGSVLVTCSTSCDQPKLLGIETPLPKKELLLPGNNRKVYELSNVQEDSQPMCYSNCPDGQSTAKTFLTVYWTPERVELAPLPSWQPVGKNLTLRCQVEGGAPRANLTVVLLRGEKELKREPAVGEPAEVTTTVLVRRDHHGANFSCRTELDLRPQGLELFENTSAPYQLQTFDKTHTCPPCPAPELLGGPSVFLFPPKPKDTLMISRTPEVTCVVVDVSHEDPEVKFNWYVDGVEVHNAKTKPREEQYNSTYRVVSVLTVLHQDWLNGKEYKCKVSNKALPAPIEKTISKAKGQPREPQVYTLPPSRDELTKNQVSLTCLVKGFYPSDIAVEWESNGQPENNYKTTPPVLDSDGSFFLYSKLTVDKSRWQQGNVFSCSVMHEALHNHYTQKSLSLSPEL

## O=C(O)CN(CCOCCOCCN(CC(=O)O)CC(=O)O)CC(=O)O [EGTA, reference compound]
[1]; ref [42], [43]
  specific block of ICAM-1/LFA-1 interaction: specifically block ICAM-1/LFA-1 interaction
[2]
  effect on VLA-4: without affecting
[3]
  effect on Mac-1: without affecting
[4]; EGTA 1 mM, splenocytes activated with PHA and ionomycin
  inhibition of B cell aggregation: inhibit completely the aggregation

## ITDGEATDSGNIDAAKDIIRYIIGI [CD11a237–261, human LFA-1-derived peptide, purchased from GenScript without any modification]
[1]; ref [36]
  ability to block ICAM-1/LFA-1 interaction: ability to block ICAM-1/LFA-1 interaction
[5]
  affinity for human ICAM-1 (D1D2Fc), in words: similar
[5]; listed as peptide of human LFA-1
  affinity for human ICAM-1 (D1D2Fc), in words: highest affinity
[6]
  inhibition of NK cell-mediated cell death of K562: blocked NK cell-mediated cell death

B1: mouse LFA-1-derived peptide CD11a(235-259) (peptide)
peptide: ITDGEASDKGNISAAHDITRYIIGI
[7]
  Kd: 70 nM

B2: Human ICAM-1: human ICAM-1 (D1D2Fc and D1D2) in this paper's tests; purified human ICAM-1 in ref [29] (protein, UniProt P05362 28-532, looked up)
Intercellular adhesion …: QTSVSPSKVILPRGGSVLVTCSTSCDQPKLLGIETPLPKKELLLPGNNRKVYELSNVQEDSQPMCYSNCPDGQSTAKTFLTVYWTPERVELAPLPSWQPVGKNLTLRCQVEGGAPRANLTVVLLRGEKELKREPAVGEPAEVTTTVLVRRDHHGANFSCRTELDLRPQGLELFENTSAPYQLQTFVLPATPPQLVSPRVLEVDTQGTVVCSLDGLFPVSEAQVHLALGDQRLNPTVTYGNDSFSAKASVSVTAEDEGTQRLTCAVILGNQSQETLQTVTIYSFPAPNVILTKPEVSEGTEVTVKCEAHPRAKVTLNGVPAQPLGPRAQLLLKATPEDNGRSFSCSATLEVAGQLIHKNQTRELRVLYGPRLDERDCPGNWTWPENSQQTPMCQAWGNPLPELKCLKDGTFPLPIGESVTVTRDLEGTYLCRARSTQGEVTRKVTVNVLSPRYEIVIITVVAAAVIMGTAGLSTYLYNRQRKIKKYRLQQAQKGTPMKPNTQATPP
[8]
  inhibition of adhesion of human monocytes: completely inhibited
[9]
  inhibition of Tc cell-mediated cell death of EL4: completely blocked cell death
[10]
  inhibition of adhesion of human macrophages: completely inhibited
[4]; protein 10 µg, splenocytes activated with PHA 10 µg/ml and ionomycin 1 µg/ml, two experiments by duplicate
  inhibition of B cell aggregation: significantly inhibited adhesion
